Where two headings read alike, the source gives them in different places.
System: wild-type ZIKV (Ugandan MR766 strain) in Vero cells
Test: ZIKV cytopathic effect (CPE) inhibition qHTS assay, CellTiter-Glo readout
Format: cell-based, Zika virus
Conditions: for Emax: read-out: Max response
[1] = Zika virus, Vero, read-out: Log AC50 (M) (converted)
[2] = Zika virus, Vero, read-out: Log AC50 (converted)

Compound	CC-v2 (curve class classification of the dose response curve)	Efficacy	AC50 (Zika virus, Vero)	AC50 [1]	Identified as active in CPE assay validation set	AC50	Curve class	AC50 [2]	Emax (Zika virus, Vero)
O=S(=O)(c1ccc(S(=O)(=O)n2cnc3ccccc32)cc1)N1CCCCCC1 [MLS000033224-02]	-3	-29.668	3.17e-05 M	3.17e-05 M					
O=c1c2ccccc2nc2n1CCc1c-2[nH]c2ccccc12 [NCGC00015892-08]	-2.2	-34.451	4.11e-05 M	4.11e-05 M					
COc1ccc(CCN(C)CCCC(C#N)(c2ccc(OC)c(OC)c2)C(C)C)cc1OC (centres unmarked) [NCGC00016083, Verapamil, reference compound]					identified				
COc1ccc2c(OC)c3ccoc3nc2c1OC [NCGC00016333-05]		-23.663	1.84e-05 M	1.84e-05 M					
C[S+]([O-])c1ccc(-c2nc(-c3ccncc3)c(-c3ccc(F)cc3)[nH]2)cc1 (centres unmarked) [NCGC00025035, SB-203580, reference compound]					identified				
CCOC(=O)C1=C(N)Oc2ccc(Br)cc2C1C(C#N)C(=O)OCC (centres unmarked) [NCGC00025207-15]		-30.652		7.31e-05 M					
CCOC(=O)C1=C(N)Oc2ccc(Br)cc2C1C(C#N)C(=O)OCC (centres unmarked) [NCGC00025207-16]		-33.191				3.26e-05 M	-3	3.26e-05 M	-2.2%
C[C@H]1O[C@@H](O[C@H]2[C@@H](O)C[C@H](O[C@H]3[C@@H](O)C[C@H](O[C@H]4CC[C@@]5(C)[C@H](CC[C@@H]6[C@@H]5C[C@@H](O)[C@]5(C)[C@@H](C7=CC(=O)OC7)CC[C@]65O)C4)O[C@@H]3C)O[C@@H]2C)C[C@H](O)[C@@H]1O [NCGC00090797-15]		-19.155	8.2e-06 M	8.2e-06 M					
O=C1Nc2ccc(Cl)cc2[C@@](C#CC2CC2)(C(F)(F)F)O1 [NCGC00159337, efavirenz, reference compound]					identified				
COc1ccc2cc1Oc1ccc(cc1)C[C@H]1c3c(cc4c(c3Oc3cc5c(cc3OC)CCN(C)[C@@H]5C2)OCO4)CCN1C [NCGC00161621-05]		-31.519	6.51e-05 M	6.51e-05 M					
CN(C)CC1CCn2c(c(C3=C(c4cn(C)c5ccccc45)C(=O)NC3=O)c3ccccc32)C1 (centres unmarked) [NCGC00163696-04]		-28.697	3.26e-05 M	3.26e-05 M					
O=C1c2c(O[C@@H]3O[C@H](CO)[C@@H](O)[C@H](O)[C@H]3O)cc(O)cc2OC1(O)Cc1ccc(O)cc1 (some centres unmarked) [NCGC00168800-03]	-3	-41.876	3.17e-05 M	3.17e-05 M					
C=C1C(=O)O[C@@H]2C3C(=C(C)[C@@H](O)[C@@H](OC(=O)/C(=C/C)COC(C)=O)[C@@H]12)C(=O)[C@H]1O[C@@]31C (some centres unmarked) [NCGC00168883-03]	-2.1	-116.882	3.17e-05 M	3.17e-05 M					
C=CC/C=C\C/C=C\CCCCCCCc1cc(O)cc(O)c1 [NCGC00168928-02]		-22.946	4.53e-05 M	4.53e-05 M					
COc1cc2occc2c(O[C@@H]2O[C@H](CO)[C@@H](O)[C@H](O)[C@H]2O)c1CCC(=O)O [NCGC00168932-02]	-3	-83.984	1.59e-05 M	1.59e-05 M					
CC(=O)O[C@@]1(C)C[C@@H](O)[C@]2(O)C=CO[C@@H](O[C@@H]3O[C@H](CO)[C@@H](O)[C@H](O)[C@H]3O)[C@@H]21 [NCGC00169032-03]		-81.683	1.42e-05 M				-3	1.42e-05 M	1.21%
C/C=C(/C)C(=O)O[C@H]1C=C(CO)C(=O)[C@H](OC(=O)/C(C)=C/CO)[C@H]1C(C)C [NCGC00169078-03]	-3	-32.45	5.08e-05 M	5.08e-05 M					
C=C1C(=O)O[C@@H]2C[C@H](C)[C@@H]3CC(=O)C(C)=C3C[C@H]12 [NCGC00169080-02]		-111.978	6.51e-05 M				-3	6.51e-05 M	-89.7%
C=C(C)C(=O)O[C@H]1[C@H]2C(=C)C(=O)O[C@@H]2C[C@@H](C)/C=C\C(=O)[C@](C)(O)[C@@H]1OC(C)=O [NCGC00169210-02]		-39.663	3.55e-05 M				-3	3.55e-05 M	-40.2%
C=C(C)C(=O)O[C@H]1[C@H]2C(=C)C(=O)O[C@@H]2C[C@@H](C)[C@@H]2O[C@@H]2C(=O)[C@](C)(O)[C@@H]1OC(=O)C(=C)C [NCGC00169479-03]	-3	-35.91	3.55e-05 M	3.55e-05 M					
